Paper PMC3914206

What was measured:
[1] = target: T1, panel of 442 kinases (Homo sapiens, UniProt Q7L7X3); type: binding; conditions: kinase TAOK1; compound concentration 10 µM
T1 construct: purchased KINOMEscan
T1 sequence (Q7L7X3 1-1001): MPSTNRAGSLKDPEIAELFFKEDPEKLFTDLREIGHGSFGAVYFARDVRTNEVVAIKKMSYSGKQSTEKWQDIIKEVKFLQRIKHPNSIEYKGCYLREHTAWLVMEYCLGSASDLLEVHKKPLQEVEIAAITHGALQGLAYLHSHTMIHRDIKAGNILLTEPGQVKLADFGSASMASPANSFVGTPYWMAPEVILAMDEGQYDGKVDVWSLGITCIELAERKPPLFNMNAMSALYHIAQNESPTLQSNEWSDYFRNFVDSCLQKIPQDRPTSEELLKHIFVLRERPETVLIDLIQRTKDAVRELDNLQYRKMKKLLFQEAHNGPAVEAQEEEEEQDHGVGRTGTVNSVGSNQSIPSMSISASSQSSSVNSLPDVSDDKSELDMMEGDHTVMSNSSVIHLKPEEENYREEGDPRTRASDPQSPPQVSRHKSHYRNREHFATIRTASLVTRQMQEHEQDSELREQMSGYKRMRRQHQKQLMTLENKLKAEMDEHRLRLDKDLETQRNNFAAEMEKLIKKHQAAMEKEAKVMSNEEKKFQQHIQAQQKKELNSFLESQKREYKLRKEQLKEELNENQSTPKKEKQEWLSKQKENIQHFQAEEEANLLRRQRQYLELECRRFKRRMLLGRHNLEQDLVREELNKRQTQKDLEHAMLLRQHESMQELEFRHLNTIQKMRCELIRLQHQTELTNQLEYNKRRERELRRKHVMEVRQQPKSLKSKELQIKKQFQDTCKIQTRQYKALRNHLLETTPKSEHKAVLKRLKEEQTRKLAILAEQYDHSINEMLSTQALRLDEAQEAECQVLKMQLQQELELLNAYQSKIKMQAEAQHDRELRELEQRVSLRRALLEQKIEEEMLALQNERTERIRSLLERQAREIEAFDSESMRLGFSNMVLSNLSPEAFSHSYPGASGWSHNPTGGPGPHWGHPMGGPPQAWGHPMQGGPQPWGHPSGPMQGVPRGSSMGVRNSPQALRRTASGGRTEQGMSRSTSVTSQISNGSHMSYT
From the text: (§1) We assessed the selectivity of members of this scaffold using the KINOMEscan methodology across a near comprehensive panel of 442 kinases [[18,27]].

[2] = target: T2, panel of 442 kinases (Homo sapiens, UniProt P04049); type: binding; conditions: Compound Concentration 10 µM
T2 construct: purchased KINOMEscan
From the text: as §1

T2 sequence (P04049 whole entry): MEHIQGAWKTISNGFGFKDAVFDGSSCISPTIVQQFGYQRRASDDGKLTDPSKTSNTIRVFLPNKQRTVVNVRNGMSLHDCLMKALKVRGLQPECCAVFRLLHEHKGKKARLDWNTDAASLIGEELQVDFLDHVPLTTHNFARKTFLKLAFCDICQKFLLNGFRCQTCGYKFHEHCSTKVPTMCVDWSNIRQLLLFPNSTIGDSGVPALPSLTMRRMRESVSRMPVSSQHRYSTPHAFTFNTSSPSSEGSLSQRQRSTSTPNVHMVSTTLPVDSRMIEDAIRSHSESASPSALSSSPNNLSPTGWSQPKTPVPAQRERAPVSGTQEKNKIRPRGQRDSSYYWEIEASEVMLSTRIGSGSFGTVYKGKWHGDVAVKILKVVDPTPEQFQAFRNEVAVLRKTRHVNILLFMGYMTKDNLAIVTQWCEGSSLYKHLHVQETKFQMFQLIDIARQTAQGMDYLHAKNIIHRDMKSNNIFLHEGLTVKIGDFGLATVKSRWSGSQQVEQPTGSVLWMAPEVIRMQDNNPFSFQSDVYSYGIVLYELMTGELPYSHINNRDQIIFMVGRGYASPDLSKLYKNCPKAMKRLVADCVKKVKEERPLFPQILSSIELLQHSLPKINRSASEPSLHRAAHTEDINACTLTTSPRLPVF

| Compound | % Ctrl, TAOK1 [1] [% Ctrl] | KINOMEscan: RAF1 [2] |
| --- | --- | --- |
| CCOc1cc(C(=O)N2CCC(N3CCN(C)CC3)CC2)ccc1Nc1ncc2c(n1)N(C1CCCC1)c1ccccc1C(=O)N2C [Compound 26] | 79 | 100 |
| COc1cc(C(=O)N2CCC(N3CCN(C)CC3)CC2)ccc1Nc1ncc2c(n1)N(C1CCCC1)c1ccccc1C(=O)N2C [Compound 25, 11-cyclopentyl-2-((2-methoxy-4-(4-(4-methylpiperazin-1-yl)piperidine-1-carbonyl)phenyl)amino)-5-methyl-5H-benzo[e]pyrimido[5,4-b][1,4]diazepin-6(11H)-one] | 51 | 100 |
| COc1cc(C(=O)N2CCC(N3CCN(C)CC3)CC2)ccc1Nc1ncc2c(n1)N(C)c1ccccc1C(=O)N2C [15 (LRRK2-IN-1)] | 28 | 100 |
